Reference: US10035801B2, “Pyrazolo compounds and uses thereof” (CONSTELLATION PHARMACEUTICALS, INC., priority 2013, dated 2018)

The compounds below were run against T1, KDM5A (Homo sapiens, UniProt P29375) (assay: KDM5 enzyme assay, KDM5A HTRF (Example 463)). Conditions: not given.
T1 construct: Full length KDM5A enzyme was expressed and purified inhouse; made in house
Format: biochemical

T1 sequence (P29375 whole entry): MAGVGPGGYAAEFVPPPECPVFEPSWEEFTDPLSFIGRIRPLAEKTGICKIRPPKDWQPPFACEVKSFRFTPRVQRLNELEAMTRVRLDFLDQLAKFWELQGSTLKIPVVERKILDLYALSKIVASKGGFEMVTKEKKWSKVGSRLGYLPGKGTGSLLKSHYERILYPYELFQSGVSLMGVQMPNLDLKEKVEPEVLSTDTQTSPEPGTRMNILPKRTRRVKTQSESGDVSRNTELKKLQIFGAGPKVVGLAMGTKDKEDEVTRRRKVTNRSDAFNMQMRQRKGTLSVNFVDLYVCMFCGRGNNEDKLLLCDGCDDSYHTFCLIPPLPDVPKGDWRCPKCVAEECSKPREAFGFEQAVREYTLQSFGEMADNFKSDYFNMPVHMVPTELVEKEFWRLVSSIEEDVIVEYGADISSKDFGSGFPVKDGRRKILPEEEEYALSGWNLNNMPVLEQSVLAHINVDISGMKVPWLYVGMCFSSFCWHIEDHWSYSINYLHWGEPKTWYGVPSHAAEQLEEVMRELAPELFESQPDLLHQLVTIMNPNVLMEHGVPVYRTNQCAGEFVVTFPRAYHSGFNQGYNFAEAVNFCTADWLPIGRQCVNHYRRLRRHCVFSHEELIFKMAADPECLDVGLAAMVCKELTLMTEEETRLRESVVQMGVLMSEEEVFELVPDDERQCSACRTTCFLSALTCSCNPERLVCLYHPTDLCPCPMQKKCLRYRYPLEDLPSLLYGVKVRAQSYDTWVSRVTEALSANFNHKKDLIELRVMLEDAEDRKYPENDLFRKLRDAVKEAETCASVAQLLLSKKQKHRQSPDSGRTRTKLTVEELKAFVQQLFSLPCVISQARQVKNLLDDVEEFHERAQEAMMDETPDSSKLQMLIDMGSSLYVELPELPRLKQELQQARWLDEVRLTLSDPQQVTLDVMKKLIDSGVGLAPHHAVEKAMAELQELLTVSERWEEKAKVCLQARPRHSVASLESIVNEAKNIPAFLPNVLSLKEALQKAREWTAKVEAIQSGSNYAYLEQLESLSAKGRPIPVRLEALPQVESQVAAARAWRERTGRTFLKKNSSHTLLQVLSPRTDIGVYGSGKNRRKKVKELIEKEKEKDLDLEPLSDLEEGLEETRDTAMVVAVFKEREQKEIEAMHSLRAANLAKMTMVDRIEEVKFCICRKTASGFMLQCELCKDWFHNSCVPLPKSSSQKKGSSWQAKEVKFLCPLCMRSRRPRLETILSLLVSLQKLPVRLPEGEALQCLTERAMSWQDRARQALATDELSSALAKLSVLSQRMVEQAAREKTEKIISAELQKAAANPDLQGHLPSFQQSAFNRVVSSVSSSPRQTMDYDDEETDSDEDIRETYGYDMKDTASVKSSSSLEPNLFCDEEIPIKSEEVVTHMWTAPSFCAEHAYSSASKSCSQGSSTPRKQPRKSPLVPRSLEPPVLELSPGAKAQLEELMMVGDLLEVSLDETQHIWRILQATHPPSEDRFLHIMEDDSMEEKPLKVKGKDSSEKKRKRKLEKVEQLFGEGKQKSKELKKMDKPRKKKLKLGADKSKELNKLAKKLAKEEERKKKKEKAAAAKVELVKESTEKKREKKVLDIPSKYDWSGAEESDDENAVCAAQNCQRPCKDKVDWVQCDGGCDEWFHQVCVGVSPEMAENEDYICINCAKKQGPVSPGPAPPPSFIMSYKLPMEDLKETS

Row | SMILES | IC50
1 | CC(C)c1c[nH]c2c(C#N)cnn2c1=O [Example 197] | 29 nM
2 | C=C(C)c1c(-c2ccccc2)[nH]c2c(C#N)cnn2c1=O [Example 224] | 25 nM

Same assay, conditions: compounds of Examples 1-432; read-out: Example 463 Assay KDM5A HTRF IC50

Row | IC50 | SMILES
3 | 49 nM | CC(C)c1c(-c2cn[nH]c2)n(C)c2c(C#N)cnn2c1=O [Example 186]
4 | 240 nM | CC(C)c1c(-c2ccc(=O)n(C)c2)n(C)c2c(C#N)cnn2c1=O [Example 188]
5 | 160 nM | CCn1cc(-c2c(C(C)C)c(=O)n3ncc(C#N)c3n2C)cn1 [Example 189]
6 | 57 nM | CC(C)c1c(-c2cc(C3CC3)co2)n(C)c2c(C#N)cnn2c1=O [Example 190]
7 | 47 nM | Cc1c(C(C)C)c(=O)n2ncc(C#N)c2n1C [Example 196]
8 | 29 nM | CCc1c(C(N)=O)[nH]c2c(C#N)cnn2c1=O [Example 201]
9 | 6 nM | CCc1c(-c2cc[nH]c2)[nH]c2c(C#N)cnn2c1=O [Example 202]
10 | 11 nM | CC(C)c1c(-c2cc[nH]c2)[nH]c2c(C#N)cnn2c1=O [Example 203]
11 | 19 nM | CC(C)c1c(-c2ccc3c(c2)OC(F)(F)O3)[nH]c2c(C#N)cnn2c1=O [Example 204]
12 | 23 nM | CC(C)c1c(-c2ccc(C(N)=O)c(F)c2)[nH]c2c(C#N)cnn2c1=O [Example 205]
13 | 21 nM | CC(C)c1c(-c2ccc(S(C)(=O)=O)c(F)c2)[nH]c2c(C#N)cnn2c1=O [Example 206]
14 | 33 nM | CC(C)c1c(-c2ccc(OC(F)(F)F)c(Cl)c2)[nH]c2c(C#N)cnn2c1=O [Example 207]
15 | 9 nM | CC(C)c1c(-c2cc(F)cc(C(N)=O)c2)[nH]c2c(C#N)cnn2c1=O [Example 208]
16 | 18 nM | COc1ccc(-c2[nH]c3c(C#N)cnn3c(=O)c2C(C)C)cc1CO [Example 209]
17 | 12 nM | CC(C)c1c(-c2ccn(S(C)(=O)=O)c2)[nH]c2c(C#N)cnn2c1=O [Example 210]
18 | 24 nM | CC(C)c1c(-c2ccn(C)c2)[nH]c2c(C#N)cnn2c1=O [Example 211]
19 | 8 nM | CC(C)c1c(-c2cc3ccccc3[nH]2)[nH]c2c(C#N)cnn2c1=O [Example 212]
20 | 18 nM | CC(C)c1c(NC(=O)C2CC2)[nH]c2c(C#N)cnn2c1=O [Example 213]

Row | IC50 | SMILES
21 | 26 nM | CC(C)c1c(NC(=O)c2ccccc2)[nH]c2c(C#N)cnn2c1=O [Example 214]
22 | 23 nM | CCc1c(-c2cccc(-c3cnn(C(C)C)c3)c2)[nH]c2c(C#N)cnn2c1=O [Example 228]
23 | 20 nM | CCc1c(-c2cccc(NC(=O)OC(C)(C)C)c2)[nH]c2c(C#N)cnn2c1=O [Example 233]
24 | 14 nM | C#CC(C)c1c(-c2ccccc2)[nH]c2c(C#N)cnn2c1=O (stereo not shown) [Example 235]
25 | 18 nM | CCC(C)c1c(-c2ccccc2)[nH]c2c(C#N)cnn2c1=O (stereo not shown) [Example 236]
26 | 78 nM | CC(=O)N1CC=C(c2[nH]c3c(C#N)cnn3c(=O)c2C(C)C)CC1 [Example 237]
27 | 49 nM | CCC(=O)N1CC=C(c2[nH]c3c(C#N)cnn3c(=O)c2C(C)C)CC1 [Example 238]
28 | 21 nM | C=CC(=O)N1CC=C(c2[nH]c3c(C#N)cnn3c(=O)c2C(C)C)CC1 [Example 239]
29 | 50 nM | CC(C)c1c(C2=CCN(C)CC2)[nH]c2c(C#N)cnn2c1=O [Example 240]
30 | 13 nM | Cc1nc(Cn2cc(-c3[nH]c4c(C#N)cnn4c(=O)c3C(C)C)cn2)cs1 [Example 241]
31 | 27 nM | CC(=O)NCCn1cc(-c2[nH]c3c(C#N)cnn3c(=O)c2C(C)C)cn1 [Example 242]
32 | 20 nM | CC(C)c1c(-c2cc(Cl)cc(Cl)c2)[nH]c2c(C#N)cnn2c1=O [Example 243]
33 | 21 nM | CC(C)c1c(-c2ccc(S(C)(=O)=O)cc2F)[nH]c2c(C#N)cnn2c1=O [Example 244]
34 | 46 nM | CCC(C)(C)n1cc(-c2[nH]c3c(C#N)cnn3c(=O)c2C(C)C)cn1 [Example 245]
35 | 22 nM | CC(C)c1c(-c2ccc(F)c(Cl)c2)[nH]c2c(C#N)cnn2c1=O [Example 246]
36 | 15 nM | CC(C)c1c(-c2cccc(CCN3CCOCC3)c2)[nH]c2c(C#N)cnn2c1=O [Example 247]
37 | 69 nM | CC(C)c1c(-c2cccc(CCN(C)C)c2)[nH]c2c(C#N)cnn2c1=O [Example 248]
38 | 30 nM | CC(CO)c1c(-c2ccccc2)[nH]c2c(C#N)cnn2c1=O (stereo not shown) [Example 249]

Further lines, the compound ahead of its results:

Row | SMILES | IC50
39 | CC(C)c1c(-c2cc(-c3ccccc3)co2)n(C)c2c(C#N)cnn2c1=O [Example 187] | 750 nM
40 | CCc1c(C)n(CC)c2c(C#N)cnn2c1=O [Example 191] | 760 nM
41 | CCCn1c(C)c(CC)c(=O)n2ncc(C#N)c12 [Example 192] | 1500 nM
42 | CCc1c(C)n(CC2CC2)c2c(C#N)cnn2c1=O [Example 193] | 860 nM
43 | CCc1c(C)n(CCOC)c2c(C#N)cnn2c1=O [Example 194] | 2300 nM
44 | CCc1c(C)n(CCO)c2c(C#N)cnn2c1=O [Example 195] | 2200 nM
45 | CC(C)c1cn(C)c2c(C#N)cnn2c1=O [Example 198] | 610 nM
46 | CCOC(=O)c1c(CC)c(=O)n2ncc(C#N)c2n1C [Example 199] | 180 nM
47 | CCc1c(C(=O)O)n(C)c2c(C#N)cnn2c1=O [Example 200] | 900 nM
48 | N#Cc1cnn2c(=O)cc(-c3cccc(Br)c3)[nH]c12 [Example 215] | 410 nM
49 | N#Cc1cnn2c(=O)c(Cl)c(-c3ccccc3)[nH]c12 [Example 216] | 20 nM
50 | Cc1[nH]c2c(C#N)cnn2c(=O)c1-c1ccccc1 [Example 217] | 2100 nM
51 | Cn1c(-c2ccccc2)c(Br)c(=O)n2ncc(C#N)c12 [Example 218] | 8000 nM
52 | Cn1c(-c2ccccc2)c(Cl)c(=O)n2ncc(C#N)c12 [Example 219] | 4300 nM
53 | Cc1[nH]c2c(C#N)cnn2c(=O)c1Sc1ccccc1Cl [Example 220] | 21000 nM
54 | Cc1c(-c2ccccc2)c(=O)n2ncc(C#N)c2n1C [Example 221] | 25000 nM
55 | N#Cc1cnn2c(=O)c(CCF)c(-c3ccccc3)[nH]c12 [Example 222] | 12 nM
56 | C=CCc1c(-c2ccccc2)[nH]c2c(C#N)cnn2c1=O [Example 223] | 9 nM
57 | CC#CCc1c(-c2ccccc2)[nH]c2c(C#N)cnn2c1=O [Example 225] | 5400 nM
58 | Cn1c(-c2ccccc2)c(C2CC2)c(=O)n2ncc(C#N)c12 [Example 226] | 370 nM
59 | CCc1c(-c2cccc(-c3cnn(C)c3)c2)[nH]c2c(C#N)cnn2c1=O [Example 227] | 13 nM
60 | Cn1c(-c2ccccc2)c(-c2ccncc2)c(=O)n2ncc(C#N)c12 [Example 229] | 9600 nM
61 | CCc1c(-c2ccc(-c3ccccc3)cc2)[nH]c2c(C#N)cnn2c1=O [Example 230] | 9 nM
62 | C/C=C/Cc1c(-c2ccccc2)[nH]c2c(C#N)cnn2c1=O [Example 231] | 170 nM
63 | CCc1c(-c2ccc(Nc3ccc(F)cc3)cc2)[nH]c2c(C#N)cnn2c1=O [Example 232] | 19 nM
64 | N#Cc1cnn2c(=O)c(I)c(-c3ccccc3)[nH]c12 [Example 234] | 15 nM
65 | CC(=O)NCCCCc1c(-c2ccccc2)[nH]c2c(C#N)cnn2c1=O [Example 250] | 5700 nM
66 | CC(=O)NCCCc1c(-c2ccccc2)[nH]c2c(C#N)cnn2c1=O [Example 251] | 8000 nM
67 | N#Cc1cnn2c(=O)c(CCCCN)c(-c3ccccc3)[nH]c12 [Example 252] | 7630 nM
